Test results published in US20110059986A1, “INTERMITTENT DOSING REGIMEN FOR OVERWEIGHT AND OBESE SUBJECTS” (priority 2004, published 2011).

Assays:
Assay type in all cases: in vivo
obese Beagle dogs [1] = test: Efficacy study with continuous administration of mitratapide during 8 weeks; conditions: oral
Method: FIG. 1 is a graph displaying the results of an efficacy study wherein the apoB secretion/MTP inhibitor mitratapide was administered during 8 weeks to a group of obese Beagle dogs. The four curves illustrate the effect on body weight by plotting the ‘(%) body weight relative to the weight at the start’ when mitratapide was administered with a dosage of 0 mg per kg body weight (A curve), 0.16 mg per kg body weight (B curve), 0.31 mg per kg body weight (C curve) and 0.63 mg per kg body weight in function of the duration of the study.
The efficacy of the apoB secretion/MTP inhibitor mitratapide for the reduction of body weight was studied in a blind, randomised study with 4 parallel groups of 6 dogs each. Three groups were treated orally with three different doses of mitratapide and one group was treated orally with the vehicle and served as a placebo group. The vehicle solution contained the same ingredients as the test formulations with omission of the test substance mitratapide.
The treatment groups were:
placebo group A treated orally with vehicle
group B treated orally with 0.16 mg mitratapide per kg body weight
group C treated orally with 0.31 mg mitratapide per kg body weight
group D treated orally with 0.63 mg mitratapide per kg body weight
The test subjects were healthy, male Beagle dogs with a body weight of 13.6 to 22.6 kg at the start of the experiment and between 1 and 8 years old. All dogs were treated orally using a 5 ml syringe, once daily, in the morning for a period of 8 weeks (56 days) depending on their body weight. Body weight was measured once weekly on days 0, 7, 14, 21, . . . up to day 56. The volume of test formulation was 1 ml per 4 kg body weight. The test formulation was an aqueous 10% hydroxypropyl-β-cyclodextrin solution containing no mitratapide, 0.63 mg mitratapide per ml, 1.25 mg mitratapide per ml or 2.5 mg mitratapide per ml. Each test subject had free access (in volume and time) to commercial dog feed (Bento Kronen Professional Power) and water during the 8 week study. […]

obese Beagle dogs [2] = test: Comparison of 3 w-2 w-3 w and 4 w-4 w-4 w dosing regimen; conditions: 0.63 mg/kg oral gavage once daily
Method: Thirty two healthy obese Beagle dogs of both sexes were included in a study of two different intermittent treatment regimens: a 3 w-2 w-3 w regimen and a 4 w-4 w-4 w regimen. At the start of the study, the dogs weighed between 12.5 and 26 kg which was considered as being more than 20% higher than the ideal body weight. The study was conducted in four groups, two treated groups containing 10 obese Beagle dogs and one placebo group containing 12 obese Beagle dogs. This placebo group of 12 dogs was subdivided in two sets of 6 dogs. One placebo group followed the 3 w-2 w-3 w regimen and the other placebo group the 4 w-4 w-4 w regimen.
The test compound mitratapide was provided as a polyethylene glycol 400 (PEG 400) solution comprising 5 mg mitratapide per ml. The test solution was administered once daily in the morning by oral gavage. The volume of test formulations was 0.125 ml per kg body weight so that mitratapide was administered with a dosage of 0.63 mg/kg body weight. The body weight was measured weekly during the treatment periods to adjust the amount of test formulation. The placebo groups received water as the test formulation. Each test subject had free access (in volume and time) to commercial dog feed (Bento Kronen premium Regular dog pellets) during the first administration period. The first administration period was followed by a period during which administration of mitratapide was withheld. At the same time, the dogs were put on a maintenance diet having a caloric content equal to their caloric expenditure. […] At the start of the second administration period, the dogs were again administered a mitratapide solution with a dosage of 0.63 mg/kg body weight. The dogs were kept on the same maintenance diet as during the previous period. All dogs had free access to drinking water throughout the entire study. Body weight of each test animal was measured weekly on days 0, 7, 14, 21 and so on till day 84. The effect on body weight for each of the four dosage studies is plotted in FIG. 3. […] The reduction of body weight of the two placebo groups was less than 2% after 84 days.

obese Beagle dogs [3] = test: 4 w-4 w-4 w intermittent dosing regimen study; conditions: 4 w-4 w-4 w regimen, 0.63 mg/kg oral once daily
Method: Mitratapide was administered for a first period of four weeks at a dosage of 0.63 mg/kg body weight, withheld for four weeks and again administered for four weeks at a dosage of 0.63 mg/kg body weight. At day 29, the feeding was restricted from ad libitum access to food, to a maintenance diet having a caloric content equal to the caloric expenditure of the test subject.
The effect of a 4 w-4 w-4 w intermittent dosing regimen on 15 obese Beagle dogs, with a body weight of 16% or more above optimal body weight, was studied. The dogs were treated with mitratapide oral solution at a daily single dose of 0.63 mg/kg body weight for two periods of 28 consecutive days (4 weeks) with an intermediate period of 28 consecutive days without treatment.
The test formulation comprising mitratapide was an aqueous 10% hydroxypropyl-β-cyclodextrin solution containing 2.5 mg mitratapide per ml and was administered once daily in an amount of 1 ml per 4 kg body weight. The daily dose was mixed into a small portion of feed and presented to the dog. The rest of the feed was only provided after this portion was consumed. […] The test solution comprising mitratapide was no longer administered and the body weight of the animals was further monitored during the follow-up procedure ending on day 112. […] Body weight of each test animal was measured on days 0, 14, 28, 42, 56, 84 and 112. […]

Compound: CCC(C)n1ncn(-c2ccc(N3CCN(c4ccc(OCC5COC(CSc6nncn6C)(c6ccc(Cl)cc6)O5)cc4)CC3)cc2)c1=O (stereo not drawn) [mitratapide, (−)-[2S-[2α, 4α(S*)]]-4-[4-[4-[4-[[2-(4-chlorophenyl)-2-[[(4-methyl-4H-1,2,4-triazol-3-yl)thio]methyl]-1,3-dioxolan-4-yl]methoxy]-phenyl]-1-piperazinyl]phenyl]-2,4-dihydro-2-(1-methylpropyl)-3H-1,2,4-triazol-3-one]
- effect on body weight at 0.63 mg/kg compared with lower dose (obese Beagle dogs [1]; 0.63 mg/kg once daily for 8 weeks, free access to feed): more effective in reducing body weight
- course of body weight reduction (levelling off) (obese Beagle dogs [1]; 0.63 mg/kg once daily, continuous for 8 weeks (curve D)): started to level off after three weeks
- daily dosage necessary to decrease body weight (obese Beagle dogs [1]; once daily for 8 weeks (56 days), free access to feed, doses 0.16, 0.31, 0.63 mg/kg tested): at least 0.31 mg/kg
- course of body weight reduction (levelling off) (obese Beagle dogs [2]; 3 w-2 w-3 w and 4 w-4 w-4 w regimens): no body weight reduction levelling off effect was observed
- mean effect on body weight reduction (obese Beagle dogs [2]; 3 w-2 w-3 w regimen, day 56): 11%
- mean effect on body weight reduction (obese Beagle dogs [2]; 4 w-4 w-4 w regimen, day 84): 13%
- mean reduction of body weight (obese Beagle dogs [3]; maintenance diet from the second period, after 84 days): 9%
- course of body weight reduction (levelling off) (obese Beagle dogs [3]; two treatment periods): no body weight reduction levelling off effect was observed
